Reference: patent US8536354B2, “Steroidal ligands and their use in gene switch modulation” (Intrexon Corporation, priority 2008, dated 2013)
Like-named read-outs stand apart in the source and are kept apart here.

Tests used:
[1] = system: D. melanogaster BII cell line (expresses the ecdysteroid receptor complex EcR-USP); assay: Drosophila melanogaster BII cell line bioassay (turbidometric; agonist and antagonist versions); conditions: for EC50: read-out: EC50 (M), BII bioassay results
[2] = target: wild-type Drosophila melanogaster EcR (DmEcR; GAL4-EcR DEF with VP16-RXR-USP chimera) (Drosophila melanogaster, UniProt P34021); assay: Two-hybrid gene switch assay, luciferase reporter, wild-type DmEcR, mouse NIH3T3 cells; format: cell-based
Sequence of wild-type Drosophila melanogaster EcR (DmEcR; GAL4-EcR DEF with VP16-RXR-USP chimera) (P34021 with tags, fused parts or gaps limits assumed): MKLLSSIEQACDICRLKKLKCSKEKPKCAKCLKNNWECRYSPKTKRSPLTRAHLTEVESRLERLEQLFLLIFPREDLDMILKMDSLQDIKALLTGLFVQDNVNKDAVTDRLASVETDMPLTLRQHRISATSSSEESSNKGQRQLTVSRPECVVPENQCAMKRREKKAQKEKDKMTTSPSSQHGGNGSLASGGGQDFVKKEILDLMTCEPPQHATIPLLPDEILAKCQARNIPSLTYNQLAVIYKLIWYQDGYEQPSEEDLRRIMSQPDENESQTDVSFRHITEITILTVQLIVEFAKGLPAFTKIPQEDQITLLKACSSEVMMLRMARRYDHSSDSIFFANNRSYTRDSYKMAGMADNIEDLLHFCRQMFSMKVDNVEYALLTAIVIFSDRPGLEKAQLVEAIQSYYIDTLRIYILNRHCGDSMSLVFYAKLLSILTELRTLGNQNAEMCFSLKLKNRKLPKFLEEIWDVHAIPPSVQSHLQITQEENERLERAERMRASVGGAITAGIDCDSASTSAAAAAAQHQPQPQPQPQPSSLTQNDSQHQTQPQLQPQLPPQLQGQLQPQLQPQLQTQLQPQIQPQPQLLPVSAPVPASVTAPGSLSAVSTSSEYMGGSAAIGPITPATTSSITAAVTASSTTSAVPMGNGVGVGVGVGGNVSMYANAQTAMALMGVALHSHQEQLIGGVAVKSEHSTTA

[3] = target: T1, AmaEcR (GAL4-EcR DEF with VP16-RXR-USP chimera) (Amblyomma americanum, UniProt O44338); assay: Two-hybrid gene switch assay, luciferase reporter, AmaEcR, mouse NIH3T3 cells
T1 sequence (O44338 255-570): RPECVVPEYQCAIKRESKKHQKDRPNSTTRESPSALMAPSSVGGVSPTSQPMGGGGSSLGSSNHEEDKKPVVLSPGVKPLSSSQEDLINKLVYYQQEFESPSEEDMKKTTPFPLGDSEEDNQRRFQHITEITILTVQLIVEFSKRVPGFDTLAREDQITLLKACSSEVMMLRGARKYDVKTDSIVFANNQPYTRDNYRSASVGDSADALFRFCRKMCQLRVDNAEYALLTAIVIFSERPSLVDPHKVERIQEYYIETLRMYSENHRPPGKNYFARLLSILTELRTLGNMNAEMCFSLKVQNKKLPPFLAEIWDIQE
T1 sequence (P28702 1-533 partner): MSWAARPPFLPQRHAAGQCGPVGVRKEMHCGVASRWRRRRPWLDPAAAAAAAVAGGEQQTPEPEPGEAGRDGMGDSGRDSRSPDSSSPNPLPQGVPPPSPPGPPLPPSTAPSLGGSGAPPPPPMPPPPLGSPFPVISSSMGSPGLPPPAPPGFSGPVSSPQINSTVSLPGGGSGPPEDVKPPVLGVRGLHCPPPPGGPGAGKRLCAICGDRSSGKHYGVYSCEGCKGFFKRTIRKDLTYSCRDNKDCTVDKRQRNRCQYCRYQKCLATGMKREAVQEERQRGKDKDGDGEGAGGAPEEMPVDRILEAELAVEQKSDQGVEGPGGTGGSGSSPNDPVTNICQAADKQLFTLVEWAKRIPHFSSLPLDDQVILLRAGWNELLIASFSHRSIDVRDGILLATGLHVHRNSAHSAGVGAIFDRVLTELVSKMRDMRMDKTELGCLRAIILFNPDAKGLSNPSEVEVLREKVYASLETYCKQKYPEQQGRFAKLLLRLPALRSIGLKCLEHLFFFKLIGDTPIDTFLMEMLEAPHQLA

[4] = target: wild-type Aedes aegypti EcR (AaEcR; GAL4-EcR DEF with VP16-RXR-USP chimera) (Aedes aegypti, UniProt P49880); assay: Two-hybrid gene switch assay, luciferase reporter, wild-type AaEcR, mouse NIH3T3 cells; format: cell-based; conditions: read-out: EC50
Sequence of wild-type Aedes aegypti EcR (AaEcR; GAL4-EcR DEF with VP16-RXR-USP chimera) (P49880 with tags, fused parts or gaps limits assumed, change not shown): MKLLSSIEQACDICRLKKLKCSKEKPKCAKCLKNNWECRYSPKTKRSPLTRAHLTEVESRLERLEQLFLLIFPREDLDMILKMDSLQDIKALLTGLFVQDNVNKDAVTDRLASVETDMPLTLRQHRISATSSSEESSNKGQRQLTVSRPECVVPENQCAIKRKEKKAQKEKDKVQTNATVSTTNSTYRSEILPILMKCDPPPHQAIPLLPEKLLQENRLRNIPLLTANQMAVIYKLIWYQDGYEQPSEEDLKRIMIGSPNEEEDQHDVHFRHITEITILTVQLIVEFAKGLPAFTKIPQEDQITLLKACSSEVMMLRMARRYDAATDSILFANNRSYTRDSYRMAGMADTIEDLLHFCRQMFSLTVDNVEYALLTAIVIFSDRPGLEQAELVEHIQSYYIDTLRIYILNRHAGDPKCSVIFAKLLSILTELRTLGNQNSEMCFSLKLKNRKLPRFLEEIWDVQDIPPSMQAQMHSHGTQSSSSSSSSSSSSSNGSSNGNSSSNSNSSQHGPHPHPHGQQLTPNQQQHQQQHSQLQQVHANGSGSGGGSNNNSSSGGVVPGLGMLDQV

[5] = system: NcEcR (GAL4-EcR DEF with VP16-RXR partner); assay: Two-hybrid gene switch assay, luciferase reporter, NcEcR, mouse NIH3T3 cells; conditions: FIG. 16, GAL4-EcR (DEF)
[6] = target: T2, TmEcR (GAL4-EcR DEF with VP16-RXR partner) (Tenebrio molitor, UniProt O02035); assay: Two-hybrid gene switch assay, luciferase reporter, TmEcR, mouse NIH3T3 cells
T2 sequence (O02035 194-491): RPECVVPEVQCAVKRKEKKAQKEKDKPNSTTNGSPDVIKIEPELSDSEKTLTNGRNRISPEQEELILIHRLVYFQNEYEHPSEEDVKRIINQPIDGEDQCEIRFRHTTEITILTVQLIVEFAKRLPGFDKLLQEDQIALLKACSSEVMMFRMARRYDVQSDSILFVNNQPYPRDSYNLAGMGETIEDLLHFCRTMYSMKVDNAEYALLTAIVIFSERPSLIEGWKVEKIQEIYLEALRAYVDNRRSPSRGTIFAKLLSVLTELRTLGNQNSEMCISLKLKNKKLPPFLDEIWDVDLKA
T2 sequence (P28704 1-520 partner): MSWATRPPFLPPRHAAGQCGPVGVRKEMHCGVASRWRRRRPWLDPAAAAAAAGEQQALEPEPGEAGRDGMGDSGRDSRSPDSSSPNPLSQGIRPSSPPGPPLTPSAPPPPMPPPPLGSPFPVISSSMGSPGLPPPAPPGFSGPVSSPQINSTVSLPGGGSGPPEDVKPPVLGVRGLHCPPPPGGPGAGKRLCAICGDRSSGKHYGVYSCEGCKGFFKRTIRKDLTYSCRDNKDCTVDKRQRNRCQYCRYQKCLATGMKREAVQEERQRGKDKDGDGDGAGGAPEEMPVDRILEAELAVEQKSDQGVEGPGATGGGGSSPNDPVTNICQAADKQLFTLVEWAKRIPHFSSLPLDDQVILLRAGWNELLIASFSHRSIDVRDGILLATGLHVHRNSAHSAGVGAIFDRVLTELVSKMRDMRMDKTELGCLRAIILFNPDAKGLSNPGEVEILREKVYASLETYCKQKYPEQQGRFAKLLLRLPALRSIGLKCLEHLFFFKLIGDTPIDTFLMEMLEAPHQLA

[7] = target: T3, BaEcR (GAL4-EcR DEF with VP16-RXR-USP chimera) (Bemisia tabaci, UniProt A0A6M3RDR8); assay: Two-hybrid gene switch assay, luciferase reporter, BaEcR, mouse NIH3T3 cells
T3 sequence (A0A6M3RDR8 115-530): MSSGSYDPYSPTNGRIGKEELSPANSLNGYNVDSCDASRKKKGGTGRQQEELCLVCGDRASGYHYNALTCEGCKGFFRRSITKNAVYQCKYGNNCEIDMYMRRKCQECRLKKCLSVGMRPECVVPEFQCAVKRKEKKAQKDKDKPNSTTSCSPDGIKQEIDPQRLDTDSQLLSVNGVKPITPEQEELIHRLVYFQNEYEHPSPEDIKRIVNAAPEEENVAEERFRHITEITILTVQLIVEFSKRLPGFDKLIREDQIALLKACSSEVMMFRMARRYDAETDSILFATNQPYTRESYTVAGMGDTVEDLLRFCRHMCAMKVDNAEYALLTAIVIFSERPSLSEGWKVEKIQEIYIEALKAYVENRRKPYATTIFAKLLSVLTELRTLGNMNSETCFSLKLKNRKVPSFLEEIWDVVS
T3 sequence (P28702 1-533 partner): T1 sequence (P28702 1-533 partner)

[8] = target: BmEcR (GAL4-EcR DEF with VP16-RXR-USP chimera) (Bombyx mori, UniProt P49881); assay: Two-hybrid gene switch assay, luciferase reporter, BmEcR, mouse NIH3T3 cells; format: cell-based; conditions: read-out: EC50
Sequence of BmEcR (GAL4-EcR DEF with VP16-RXR-USP chimera) (P49881 other isoform, or with tags, fused parts or gaps, change not shown): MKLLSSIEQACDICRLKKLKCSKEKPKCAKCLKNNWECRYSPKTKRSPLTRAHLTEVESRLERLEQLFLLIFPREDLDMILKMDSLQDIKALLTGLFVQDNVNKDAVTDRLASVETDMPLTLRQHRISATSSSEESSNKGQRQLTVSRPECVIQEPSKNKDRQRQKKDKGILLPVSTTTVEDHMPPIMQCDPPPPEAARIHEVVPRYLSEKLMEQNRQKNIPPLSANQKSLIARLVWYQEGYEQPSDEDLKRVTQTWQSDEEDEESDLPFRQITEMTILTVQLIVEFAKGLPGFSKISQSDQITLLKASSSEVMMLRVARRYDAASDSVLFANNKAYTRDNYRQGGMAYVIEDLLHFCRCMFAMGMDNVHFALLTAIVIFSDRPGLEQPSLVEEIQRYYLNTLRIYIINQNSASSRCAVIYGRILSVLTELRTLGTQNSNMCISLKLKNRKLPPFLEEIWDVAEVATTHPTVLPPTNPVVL

[9] = target: T4, MsEcR (GAL4-EcR DEF with VP16-RXR-USP chimera) (Manduca sexta, UniProt P49883); assay: Two-hybrid gene switch assay, luciferase reporter, MsEcR, mouse NIH3T3 cells
T4 sequence (P49883 1-556): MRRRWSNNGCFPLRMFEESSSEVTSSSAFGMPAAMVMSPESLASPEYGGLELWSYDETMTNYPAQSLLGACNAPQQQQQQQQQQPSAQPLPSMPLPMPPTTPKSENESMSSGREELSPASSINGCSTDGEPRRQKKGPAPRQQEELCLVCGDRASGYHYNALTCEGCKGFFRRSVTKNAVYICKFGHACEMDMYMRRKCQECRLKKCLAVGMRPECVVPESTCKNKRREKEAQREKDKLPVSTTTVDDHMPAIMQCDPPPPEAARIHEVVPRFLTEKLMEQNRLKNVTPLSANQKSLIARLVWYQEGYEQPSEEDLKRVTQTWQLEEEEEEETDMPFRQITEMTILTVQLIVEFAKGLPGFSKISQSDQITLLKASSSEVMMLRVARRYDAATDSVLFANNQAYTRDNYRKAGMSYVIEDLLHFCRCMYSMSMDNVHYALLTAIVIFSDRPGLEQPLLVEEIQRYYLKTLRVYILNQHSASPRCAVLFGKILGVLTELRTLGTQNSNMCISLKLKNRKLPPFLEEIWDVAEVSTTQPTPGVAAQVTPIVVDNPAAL
T4 sequence (P28702 1-533 partner): T1 sequence (P28702 1-533 partner)

[10] = D. melanogaster BII cell line, turbidometric
[11] = EC50, FIG. 14A/14B, GAL4-EcR(DEF) with VP16-RXR-USP chimera
[12] = EC50, FIG. 16, GAL4-EcR (DEF) / VP16-RXR-USP chimera

Compound	EC50 [1, 10]	EC50 ([1]; Drosophila melanogaster)	further results
CO[C@H]1C[C@@]2(C)[C@@H](C[C@H]1O)C(=O)C=C1[C@@H]2CC[C@]2(C)[C@@H]([C@@](C)(O)C(O)CCC(C)(C)O)CC[C@@]12O (stereo partly drawn) [compound 1, 20-hydroxyecdysone, 2-methyl ether]	1.1e-06 M		
CO[C@@]12CCC([C@@](C)(O)[C@H](O)CCC(C)(C)O)C1(C)CCC1C2=CC(=O)C2C[C@@H](O)[C@@H](O)CC21C (stereo partly drawn) [compound 3, 20-hydroxyecdysone, 14-methyl ether]		3.2e-06 M	
CCCO[C@H](CCC(C)(C)O)[C@](C)(O)C1CC[C@@]2(O)C3=CC(=O)C4C[C@@H](O)[C@@H](O)CC4(C)C3CCC12C (stereo partly drawn) [compound 6, 20-hydroxyecdysone, 22-n-propyl ether]		8.3e-07 M	
C=CCO[C@H](CCC(C)(C)O)[C@](C)(O)C1CC[C@@]2(O)C3=CC(=O)C4C[C@@H](O)[C@@H](O)CC4(C)C3CCC12C (stereo partly drawn) [compound 7, 20-hydroxyecdysone, 22-allyl ether]		1.6e-07 M	
CCCCO[C@H](CCC(C)(C)O)[C@](C)(O)C1CC[C@@]2(O)C3=CC(=O)C4C[C@@H](O)[C@@H](O)CC4(C)C3CCC12C (stereo partly drawn) [compound 8, 20-hydroxyecdysone, 22-n-butyl ether]		1e-07 M	
CC(C)(O)CC[C@@H](OCc1ccccc1)[C@](C)(O)C1CC[C@@]2(O)C3=CC(=O)C4C[C@@H](O)[C@@H](O)CC4(C)C3CCC12C (stereo partly drawn) [compound 9, 20-hydroxyecdysone, 22-benzyl ether]		2.2e-08 M	BII potency relative to 20E [1]: does not decrease 20E potency very much
COC(C)(C)CC[C@@H](O)[C@](C)(O)[C@H]1CC[C@@]2(O)C3=CC(=O)[C@@H]4C[C@@H](O)[C@@H](O)C[C@]4(C)[C@H]3CC[C@]12C [compound 10, 20-hydroxyecdysone-25-methyl ether]	6e-08 M		
CO[C@H]1C[C@@]2(C)[C@@H](C[C@H]1O)C(=O)C=C1[C@@H]2CC[C@]2(C)[C@@H]([C@@](C)(O)[C@@H](CCC(C)(C)O)OC)CC[C@@]12O [compound 11, 20-hydroxyecdysone, 2,22-dimethyl ether]	9.3e-07 M		
CO[C@H](CCC(C)(C)O)[C@](C)(O)C1CC[C@@]2(OC)C3=CC(=O)C4C[C@@H](O)[C@@H](O)CC4(C)C3CCC12C (stereo partly drawn) [compound 13, 20-hydroxyecdysone, 14,22-dimethyl ether]		2.5e-06 M	
CO[C@H](CCC(C)(C)OC)[C@](C)(O)[C@H]1CC[C@@]2(O)C3=CC(=O)[C@@H]4C[C@@H](O)[C@@H](O)C[C@]4(C)[C@H]3CC[C@]12C [compound 14, 20-hydroxyecdysone, 22,25-dimethyl ether]	1.2e-07 M		
CO[C@H]1CC2(C)C(C[C@H]1OC)C(=O)C=C1C2CCC2(C)C([C@@](C)(O)[C@@H](CCC(C)(C)O)OC)CC[C@@]12OC (stereo partly drawn) [compound 15, 20-hydroxyecdysone, 2,3,14,22-tetramethyl ether]		9e-05 M	
CO[C@H]1C[C@@]2(C)[C@@H](C[C@H]1O)C(=O)C=C1[C@@H]2CC[C@]2(C)[C@@H]([C@@](C)(O)[C@H](O)CCC(C)C)CC[C@@]12O [compound 16, ponasterone A, 2-methyl ether]	4.3e-08 M		
CO[C@@]12CC[C@H]([C@@](C)(O)[C@H](O)CCC(C)C)[C@@]1(C)CC[C@H]1C2=CC(=O)[C@@H]2C[C@@H](O)[C@@H](O)C[C@@]21C [compound 17, ponasterone A, 14-methyl ether]	6e-08 M		
CO[C@H]1C[C@@]2(C)[C@@H](C[C@H]1O)C(=O)C=C1[C@@H]2CC[C@]2(C)[C@@H]([C@@](C)(O)[C@@H](CCC(C)C)OC)CC[C@@]12O [compound 19, ponasterone A, 2,22-dimethyl ether]	3e-08 M		
COC(CCC(C)C)[C@](C)(O)[C@H]1CC[C@@]2(O)C3=CC(=O)[C@@H]4C[C@@H](OC)[C@@H](O)C[C@]4(C)[C@H]3CC[C@]12C (stereo partly drawn) [compound 20, ponasterone A, 3,22-dimethyl ether]	1.2e-08 M		
CC(=O)C1CCC2(O)C3=CC(=O)C4CC(O)C(O)CC4(C)C3CCC12C (stereo not drawn) [poststerone]			EC50 [2, 11]: > 33 µM; EC50 [2, 12]: > 33 µM; EC50 [3, 11]: > 33 µM; EC50 [3, 12]: ~10 µM; EC50 ([4]; FIG. 14A/14B, GAL4-EcR(DEF) with VP16-RXR-USP chimera): > 33 µM; EC50 ([4]; FIG. 16, GAL4-EcR (DEF) / VP16-RXR-USP chimera): 10.5 µM; EC50 [5]: ~10 µM; EC50 ([6]; EC50, FIG. 14A/14B, GAL4-EcR(DEF)): > 33 µM; EC50 ([6]; EC50, FIG. 16, GAL4-EcR (DEF)): > 33 µM; EC50 [7, 11]: > 33 µM; EC50 [7, 12]: > 33 µM; EC50 [8]: > 33 µM; EC50 ([9]; EC50, FIG. 13A/13B, GAL4-EcR(DEF) with VP16-RXR-USP chimera): > 33 µM; EC50 ([9]; EC50, FIG. 15, GAL4-EcR (DEF) / VP16-RXR-USP chimera): > 33 µM
